Results: patent publication US20080280860A1, “Use of Vitamin D Compounds to Treat Endometriosis” (BioXell S.p.A., priority 2005, published 2008)

System: stromal cells
Assay: Real Time PCR for gene expression quantification in cultured cells
Assay type: cell-based
Settings: 1 uM and 0.1 uM versus untreated
Experimental: Tissue was gently minced into small pieces (1 to 2 mm^3) and incubated at 37° C. for 1 h with 0.1% type A collagenase. At the end of the incubation, single stromal cells were separated from large clumps of epithelium by a 10 min. period of differential sedimentation at unity gravity. The top 8 ml of medium, containing predominantly stromal cells, were then slowly removed and the cells were collected by centrifugation. The stromal-enriched fraction was washed twice in culture medium and allowed to adhere selectively to tissue culture dishes for 15 min.
Thereafter, nonattached epithelial cells still present were removed and a purified stromal preparation was obtained on the surface of the culture dishes.
Cells were incubated at 37° C. in 3% FBS DMEM (without Compound A, with Compound A at 1 uM concentration or with Compound A at 0.1 uM concentration) or 10% FBS DMEM (without Compound A, with Compound A at 1 uM concentration or with Compound A at 0.1 uM concentration). After 4 or 8 hours of incubation cells were trypsinized and collected as a cell pellet.
For total RNA extraction it was used the RNeasy Mini Kit QIAGEN (cat. no. 74106) briefly described below.
Cells were distrupted by addition of Buffer RLT and the lysate was loaded onto a QlAshredder spin column (QIAGEN cat. no. 79656) placed in a 2 ml collection tube and centrifuged for 2 min at maximum speed. A volume of 70% ethanol was added to the homogenized lysate. The sample was loaded on an RNeasy mini column placed in a 2 ml collection tube and centrifuged for 15 sec at >10000 rpm. The RNA bound to the column was digested with a DNase treatment. The column was washed with Buffer RW1 and centrifuged for 15 sec at >10000 rpm. The sample was incubated with DNase I mix (RNase-Free Dnase Set QIAGEN cat. no. 79254) at room temperature for 15 min. […] RNA concentration was evaluated by NanoDrop Spectrophotometer […]
Real Time PCR was performed by using ABI PRISM 7000 Sequence Detection System (Applied Biosystems). […] The genes analysed included Vitamin D Receptor (VDR), Cytochrome P450 (CYP24), Vascular Endothelial Growth Factor (VEGF), Estrogen Receptor alpha (ERα), Estrogen Receptor beta (ERβ), Progesterone Receptor (PR), Aromatase (CYP19), Cyclooxygenase type 2 (COX-2), Interleukin-8 (IL-8), Tumor Necrosis Factor alpha (TNF α), Caspase-3 (CASP3), Caspase-6 (CASP6), Ki-67 Nuclear Antigen (Ki-67).
Samples were incubated 2 min at 50° C., 10 min at 95° C. and amplified for 40 cycles at 95° C. for 15 sec (denaturation) and at 60° C. for 1 min (annealing/extension). The amount of gene expression was normalized to rRNA 18S gene expression and the comparative CT methods (User Bulletin #2 ABI PRISM 7000 Sequence Detection System) was used for relative quantitation.

C=C1/C(=C\C=C2/CCC[C@]3(C)C([C@@H](C)C/C=C/C(O)(CC)CC)=CC[C@@H]23)C[C@@H](O)C[C@@H]1F [Compound A, 1-alpha-fluoro-25-hydroxy-16,23E-diene-26,27-bishomo-20-epi-cholecalciferol]
VDR expression (FIG. 3A): Little or no change
VEGF expression (FIG. 3B): Little or no change
Cyp24 expression (FIG. 3C): marked upregulation
Cyp19 expression (FIG. 3D): Little or no change
